Assay results reported in patent US10258557B2, “Peptide for stimulating melanogenesis” (priority 2017, dated 2019).
Where a SMILES comes first, the peptide text is derived from it.

System: B16F10 cells
Assay: MTT assay, cell viability
Assay type: cell-based, mouse
Details: different concentrations, 24, 48 or 72 hours
Experimental: B16F10 is a melanoma cell line isolated from mouse skin (American Type Culture Collection, USA) and was cultured in phenol red-free Dulbecco's Modified Eagle Medium (DMEM) containing 10% (v/v) FBS and penicillin/streptomycin (100 IU/[…]) in 5% CO2 at 37° C.
The cells (2×10^3) in 100 μl complete DMEM were seeded in 96-well plates and treated with the peptide of SEQ ID NO: 1 at different concentrations. The cells treated with ddH2O was used as controls. Ten microliters of 5 mg/ml 3-(4,5-dimethyl-2-thiazolyl)-2,5-diphenyl-2H-tetrazolium bromide solution (MTT; Sigma) was added to each well and incubated at 37° C. for 3 hours. After that, 100 μl 10% SDS in 0.01N HCl was added to dissolve the MTT formazan crystals. The resultant optical density was measured by spectrophotometry at dual wavelengths, 550 and 630 nm.

For `C[C@H](NC(=O)[C@H](CO)NC(=O)[C@@H](N)CC(N)=O)C(=O)N[C@H](C(=O)N[C@@H](CCC(=O)O)C(=O)N[C@@H](CCCNC(=N)N)C(=O)N[C@@H](CCC(=O)O)C(=O)O)[C@@H](C)O` [peptide of SEQ ID NO: 1, AsnSerAlaThrGluArgGlu] (H-NSATERE-OH), the “cell viability (MTT)” value (FIG. 3) was “did not significantly affect the viability” and the “cell viability (MTT)” value (FIG. 3, listed as peptide having the amino acid sequence of SEQ ID NO: 1) was “did not significantly affect viability”.
